From patent publication US11951171B2, “Polypeptide EXP and its drug delivery system as well as extracellular vesicle extraction” (TIANJIN MEDICAL UNIVERSITY, priority 2019, dated 2024)

What was measured:
[1] = test system: exosome from differentiated muscle cells C2C12(dC2C12); assay: Flow cytometry binding of FAM-labeled peptides to exosome; parameters: species or system murine
Method: The FAM-labeled peptides EXP, CP05, 39880, 39881 were respectively co-incubated with exosome from differentiated muscle cells C2C12(dC2C12), and the binding efficiency of different polypeptides with exosome was detected by flow cytometry.
Each sign in the figure represents the detection results of the following sequences: EXO represents exosomes derived from murine myotubes; CP05 represents the polypeptide which is recorded in the prior art Chinese patent No. CN201510520565.7; EXP represents the polypeptide of the present invention (SEQ ID NO.1). 39880 and 399881 respectively represent two other variants of CP05. (A) Flow cytometry to detected the binding efficiency of different peptides with exosomes. […] (B) Flow cytometry to detected the capacity to enter cells of different peptides mediated by exosome. The equivalent amount FAM-labeled polypeptides were incubated with exosome derived from dC2C12 and added into C2C12 cells, and the capacity of enter cells was detected 24 hours later. It's shown by the results that 65.6% of EXO-EXP entered cells whose capacity is highest. (C) Quantitative analysis of different peptides entering cells mediated by exosome. […] (D) the binding efficiency of different amount gradients of CP05 and EXP to the equivalent amount of exosomes was detected by Flow cytometry to. Different amounts of EXP and CP05(0.03 μg, […], 0.3 μg) were co-incubated with exosomes (10 μg), and their binding efficiency was compared by flow cytometry.
1.1 Flow cytometry is used to detect the binding capacity of EXP and other peptides to exosome. • (1) FAM-labeled CP05 and other peptides respectively with amount of […] were mixed with exosome from different source like dC2C12, CDC and serum respectively with amount of […], and DPBS is used to make up a deficiency to 200 μl in volume with. • (2) The mixture prepared as described in (1) was incubated at 4° C. for 2-4 hrs under rotation in vertical shaker. • (3) the binding efficiency was detected with flow cytometry.

[2] = test system: exosomes derived from murine myotubes(EXOmyotube), cardiac sphere cells (CDC) (EXOCDC) and human serum (EXOserum); assay: Binding efficiency with exosomes from different sources (flow cytometry)
Method: FAM-labeled CP05 or EXP was co-incubated with exosomes derived from murine myotubes(EXOmyotube), cardiac sphere cells (CDC) (EXOCDC) and human serum (EXOserum), and the binding efficiency was detected with flow cytometry. It's shown by the results that the binding efficiency of CP05 to exosomes from different sources is about 70%, and the binding efficiency of the same amount of EXP with exosomes from corresponding sources was about 90%.
Experimental example 5: Comparison on binding efficiency of EXP and exosomes from different sources. • (1) 0.06 μg FAM-labeled CP05 and 0.06 μg of different peptides were respectively mixed with 10 μg exosome from dC2C12, CDC, serum, and DPBS was used to make up a deficiency to 200 μl. • (2) The mixture was incubated for 2-4 hrs at 4° C. under rotation in vertical shaker. • (3) The binding efficiency was detected with flow cytometry.

[3] = test system: exosomes in serum; assay: Capture of serum exosomes with His-tagged peptide coated nickel beads
Source text: (A) Nano sight was used to detect the particle size of exosomes in serum captured by CP05 and EXP. It's shown by the results that the particle size of exosomes captured by EXP was about 50 nm, whose homogeneity was higher than that of exosomes recovered by ultra separation. […] It's shown by the results that exosomes captured by EXP has typical bi-layer structure, and the size of exosomes captured by EXP was smaller than that of exosomes recovered by ultrafiltration.(D) Western blot was used to detect the marker protein capturing exosome.
Experimental example 6: Characterization and functional validation of exosome captured from serum by EXP. • (1) His-tagged EXP and CP05 (100 μg) were respectively mixed with […] beads in 200 μl binding solution at 4° C. for 1 h under rotation. • (2) 1 ml pre-centrifuged serum was added to His-EXP and His-CP05 coated nickel beads (centrifuged at 4400 g for 20 min, followed by 13000 g for 5 min), and then incubated at 4° C. for 30 min; • (3) The serum was discarded and the nonspecific binding was washed with the washing solution for 3 times, 10 min each time. • (4) […] was used to recover extracellular vesicles.
6.1 Measurement of the size of captured exosomes. • (1) […] of exosomes recovered from elution were diluted into 1 ml of PBS. • (2) Nanosight was used to detect the size distribution of captured exosomes. […]

[4] = test system: exosomes recovered by EXP; assay: Binding efficiency of CP05 and EXP with serum exosomes recovered by EXP; details: serum exosomes recovered by EXP (FIG. 6E)
[5] = test system: MVmyo (microvesicles derived from differentiated muscle cells); assay: Binding efficiency of EXP and CP05 to microvesicles (flow cytometer); details: flow cytometer (FIG. 8C)
Source text: (A)Western blot is used to identify and compare the expression of biomarker proteins of MV and exosomes. It's shown by the results that Tetraspanin family proteins like CD81, CD9 and CD63 were expressed in MV, but mitochondrial marker protein Cytochrome C was not expressed. (B) particle size distribution of MV from different sources were detected by Nanosight. MVmyot means microvesicles derived from differentiated muscle cells; MVurine means microvesicles derived from urine. (C) Examination of the binding efficiency of EXP and CP05 to MVmyo was detected by flow cytometer. […] (E)Western blot was used to detect the recovery of dystrophin protein expression after MVEXPPMO treatment. […]

CRHKMWTVKSRL (EXP)
binding efficiency with exosome under different amount gradients, compared with CP05 ([1]; 0.03 μg, 0.06 g, 0.3 μg peptide co-incubated with exosomes (10 μg), FIG. 1D): all higher than that of CP05 | binding efficiency to exosomes ([1]; FAM-labeled peptide co-incubated with exosome from dC2C12, flow cytometry (FIG. 1A)): up to 95.5% | binding efficiency of EXP with exosomes compared to CP05 ([1]; under the same conditions): about 2 times | binding efficiency to exosomes from serum compared with CP05 ([2]; exosomes from serum): significantly higher than that of CP05 | binding efficiency to exosomes from different sources ([2]; same amount of FAM-labeled peptide, EXOmyotube, EXOCDC, EXOserum): about 90% | capture efficiency of exosomes in serum ([3]; FIG. 6F): 93.5% | extraction rate of serum exosomes compared with CP05 ([3]; extraction of serum exosomes): about 2 times | binding efficiency with recovered exosomes [4]: 95.9% | binding efficiency to MVmyot compared with CP05 [5]: significantly higher than that of CP05
